Test results taken from patent US20040049056A1 (priority 2000, published 2004).
Like-named read-outs stand apart in the source and are kept apart here.

Experiments:
plant pathogenic fungi = test: Assay for antifungal activity of esculetin compounds (method similar to Assay example 1); type: cell-based
Source text: The activities of the following esculetin compounds was confirmed by a method similar to Assay example 1.

plants = test: Assay for herbicidal activity of esculetin compounds (method similar to Assay example 2); type: in vivo
Source text: The activities of the following esculetin compounds was confirmed by a method similar to Assay example 2.

Pyricularia oryzae = type: cell-based
Fusarium nivale = type: cell-based
Septoria tritici = type: cell-based
Pythium aphanidermatum = type: cell-based
Pytophthora infestans = type: cell-based

SMILES	Antifungal activity (plant pathogenic fungi)	Herbicidal activity (plants)	Rate of growth suppression (%) P.o (Pyricularia oryzae)	Rate of growth suppression (%) F.niv (Fusarium nivale)	Rate of growth suppression (%) S.t (Septoria tritici)	Rate of growth suppression (%) P.a (Pythium aphanidermatum)	Rate of growth suppression (%) P.i (Pytophthora infestans)	melting point [°C]	Rate of growth suppression (%) P.o (Pyricularia oryzae; 10 mg/L, 3 DAT)	Rate of growth suppression (%) P.i (Pytophthora infestans; 10 mg/L, 4 DAT)
O=c1ccc2cc3c(cc2o1)OCO3 [methylenedioxycoumarin]	confirmed	confirmed	–	–	–	–	–	–	–	–
O=Cc1cc2c(cc1O)OCO2 [Compound (d), 4,5-methylenedioxysalicylaldehyde]	–	–	+ (key: −: less than 10%; +: 10 to 60%; ++: more than 60%)	+ (key: −: less than 10%; +: 10 to 60%; ++: more than 60%)	+ (key: −: less than 10%; +: 10 to 60%; ++: more than 60%)	+ (key: −: less than 10%; +: 10 to 60%; ++: more than 60%)	+ (key: −: less than 10%; +: 10 to 60%; ++: more than 60%)	125 to 126	–	–
Oc1ccc(O)c(OCc2ccccc2)c1 [Compound (a), 2-benzyloxy-1,4-hydroquinone]	–	–	++ (key: −: less than 10%; +: 10 to 60%; ++: more than 60%)	+ (key: −: less than 10%; +: 10 to 60%; ++: more than 60%)	+ (key: −: less than 10%; +: 10 to 60%; ++: more than 60%)	+ (key: −: less than 10%; +: 10 to 60%; ++: more than 60%)	+ (key: −: less than 10%; +: 10 to 60%; ++: more than 60%)	–	–	–
O=Cc1cc(O)c(OCc2ccccc2)cc1O [Compound (b), 2,5-dihydroxy-4-benzyloxybenzaldehyde]	–	–	–	++ (key: −: less than 10%; +: 10 to 60%; ++: more than 60%)	+ (key: −: less than 10%; +: 10 to 60%; ++: more than 60%)	++ (key: −: less than 10%; +: 10 to 60%; ++: more than 60%)	–	–	+ (10 to 60%)	+ (10 to 60%)
CC1(C)Oc2cc(O)c(C=O)cc2O1 [Compound (e), 2,2-dimethyl-5-formyl-6-hydroxy-1,3-benzodioxol]	–	–	–	+ (key: −: less than 10%; +: 10 to 60%; ++: more than 60%)	+ (key: −: less than 10%; +: 10 to 60%; ++: more than 60%)	+ (key: −: less than 10%; +: 10 to 60%; ++: more than 60%)	–	104 to 105	+ (10 to 60%)	+ (10 to 60%)
CC(=O)Oc1cc(OCc2ccccc2)c(OC(C)=O)cc1C=O [Compound (c), 2,5-diacetoxy-4-benzyloxybenzaldehyde]	–	–	–	++ (key: −: less than 10%; +: 10 to 60%; ++: more than 60%)	++ (key: −: less than 10%; +: 10 to 60%; ++: more than 60%)	+ (key: −: less than 10%; +: 10 to 60%; ++: more than 60%)	–	–	+ (10 to 60%)	+ (10 to 60%)
CC1(C)Oc2cc3ccc(=O)oc3cc2O1 [esculetin acetonide]	confirmed	confirmed	–	–	–	–	–	–	–	–
O=c1ccc2cc(O)c(OCc3ccccc3)cc2o1 [7-benzyloxy-6-hydroxycoumarin]	confirmed	confirmed	–	–	–	–	–	–	–	–
